Measured values published in patent publication US20050038058A1, “Novel compounds and methods for therapy” (Institute of Organic Chemistry and Biochemistry, priority 2001, published 2005).
In brackets after ≈: the same amount, converted by molar mass. Where two headings read alike, the source gives them in different places.

Tests used:
[1] = tested on: MSV; assay: MSV-induced transformation of murine embryo fibroblast C3H/3T3 cell cultures; type: cell-based; conditions: MSV-induced C3H cell transformation, Table 2; for EC50: Mus musculus, read-out: EC50 MSV (C3H)
Description: The inhibitory effect of the test compounds on MSV-induced transformation of murine embryo fibroblast C3H/3T3 cell cultures was examined microscopically at day 6 post infection. MSV was added at 75 focus-forming units to the cell cultures. The detailed procedures for the antiretroviral evaluations has been described in detail before (Balzarini et al., AIDS 5:21-28, 1991; Balzarini et al., Antimicrob. Agents Chemother. 37:332-338, 1993; De Clercq et al., Proc. Soc. Exp. Biol. Med. 137:590-594, 1971).

[2] = tested on: HIV-1/L1S; type: cell-based; conditions: measured against the laboratory HIV-1/IIIB strain in CEM cell cultures
Text: (§1) Viruses. The origins of MSV, HIV type 1 (HIV-1) (strain IIIB and Ba-L), HIV-2 (strain ROD) and FIV (strain Petaluma) have been described previously (Balzarini et al., AIDS 5: 21-28, 1991; De Clercq et al., Proc. Soc. Exp. Biol. Med. 137:590-594, 1971; Egberink et al., Proc. Natl. Acad. Sci. 87:3087-3091, 1990; Hartmann et al., Antiviral Chem. Chemother. 5:13-19, 1994; Popovic et al., Science 224:497-500, 1984). HIV-1(IIIB) and HIV-2(ROD) stocks were obtained from supernatants of virus-infected MT-4 cell cultures. HIV-1BaL was expanded in human primary M/M, whose supernatants were collected, filtered and stored at −80° C. before use. Characteristics of viral stocks used for this study were 2.1×10^8 HIV-RNA genomes/ml (corresponding to 35 ng of p24 antigen) and 5,000 tissue culture infectious doses 50% per ml (TCID50/ml) as assessed by virus titration in other primary M/M cultures. The isolation and characterization of the clinical HIV-1 isolates L1S, L6S and L6S/PMEA has been reported (Thormar et al., Proc. Natl. Acad. Sci. USA 93:3283-3287, 1995; Van Laethem et al., AIDS 15:553-561, 2001). […] HIV-1/L6S/PMEA is the clinical isolate HIV-1/L6S that has been isolated after culturing the virus for 11 passages in the presence of increasing concentrations of PMEA (adefovir).
(§2) In vitro antiviral assays. The activity against HIV-1- and HIV-2-induced cytopathicity was examined in MT-4 cell cultures at day 5 post infection and based on the determination of cell viability by trypan blue dye staining or in CEM cell cultures at day 4 to 5 post infection and based on the microscopical examination of virus-induced giant cell formation. HIV-1 and HIV-2 were added at 100 CCID50 to the cell cultures.

[3] = tested on: HIV-1/L6S; type: cell-based; conditions: measured against the laboratory HIV-1/IIIB strain in CEM cell cultures
Text: as §1, §2

[4] = tested on: HIV-1/L6S/PMEA; type: cell-based; conditions: measured against the laboratory HIV-1/IIIB strain in CEM cell cultures
Text: as §1, §2

[5] = tested on: C3H cells; assay: Alteration of C3H cell morphology (minimal inhibitory concentration); type: cell-based, murine; conditions: for CC50 C3H (minimal inhibitory concentration): microscopically visible alteration of cell morphology, > means no visible toxicity at the indicated concentration; for Compound concentration at which morphological toxicity was observed, C3H (value between parentheses): Table 2, footnote c
[6] = tested on: CEM cells; assay: Incorporation of [3H]thymidine, [3H]uridine and [3H]leucine into CEM cell material; type: cell-based; conditions: 200 μg/mL; 12 hour incubation period
Description: The incorporation of [methyl-^3H]thymidine, [^3H]uridine and [^3H]leucine into the methanol-insoluble CEM cell fraction was also measured in microplates. To each well were added 10^5 CEM cells, 5.9 pmol (0.25 μCi) of [methyl-^3H]thymidine, 38 pmol (1.0 μCi) of [^3H]uridine and 19 pmol (1.0 μCi) [4,5-^3H]leucine, and a given amount of the test compound. […] At the end of this incubation period, the contents of the wells (200 μl) were brought onto 25-mm glass fiber filters (type A/G; Gelman Instrument Co., Ann Arbor, Mich.) mounted on a Millipore 3025 sampling manifold apparatus. The filters were washed twice with cold PBS (phosphate-buffered saline), twice with cold 10% trichloroacetic acid, twice with cold 5% trichloroacetic acid, once with cold ethanol, and once with cold ether. The filters were then allowed to dry for 10 min at 60° C. and assayed for radioactivity in a toluene-based scintillant.

[7] = tested on: HIV-1(IIIB); assay: HIV-1(IIIB)-induced cytopathicity in CEM cell cultures; type: cell-based
Text: as §1, §2

[8] = tested on: HIV-1(IIIB); assay: HIV-1(IIIB)-induced cytopathicity in MT-4 cell cultures; type: cell-based; conditions: Table 2; for EC50: Human immunodeficiency virus 1, IIIB, MT4
Text: as §1, §2

[9] = tested on: HIV-1(IIIB); assay: HIV-1(IIIB) p24 antigen production in PBL (PHA-stimulated PBMC); type: cell-based; conditions: for EC50: Human immunodeficiency virus 1, IIIB, PBMC
Description: Peripheral blood mononuclear cells (PBMC) from healthy donors were isolated by density centrifugation (Lymphoprep; Nycomed Pharma, AS Diagnostics, Oslo, Norway) and stimulated with phytohemagglutin (PHA) (Sigma Chemical Co., Bornem, Belgium) for 3 days. The activated cells (PHA-stimulated blasts) were washed with PBS and viral infections were done as described by the AIDS clinical trial group protocols. Briefly, PBMCs (2×10^5/200 well) were plated in the presence of serial dilutions of the test compound and were infected with HIV stocks at 1000 CCID50 per mL. At day 4 post-infection, 125 μl of the supernatant of the infected cultures was removed and replaced with 150 μl of fresh medium containing the test compounds at the appropriate concentrations. At 7 days after plating the cells, p24 antigen was detected in the culture supernatant by an enzyme-linked immunosorbent assay (NEN, Paris, France).

[10] = tested on: HIV-1(IIIB) strains containing L100I, K103N, Y181C and Y188H mutations in the RT; assay: HIV-1(IIIB) strains with NNRTI-specific RT mutations in CEM cell cultures; type: cell-based; conditions: data not shown
Description: as §2

[11] = Alteration of C3H cell morphology (minimal inhibitory concentration); type: cell-based, murine; conditions: mouse, microscopically visible alteration of cell morphology, > means no visible toxicity at the indicated concentration, read-out: CC50 C3H (minimal inhibitory concentration)
[12] = HIV-1 (IIIB) in CEM, no addition, Table 3
[13] = HIV-1 (IIIB) in CEM, Ade 100 μM
[14] = HIV-1 (IIIB) in CEM, Ado 400 μM
[15] = HIV-1 (IIIB) in CEM, dThd 10 μM
[16] = HIV-1(IIIB)-induced cytopathicity in CEM cell cultures, Table 1
[17] = giant cell formation, mean ±SD of 2 to 4 experiments, Table 2
[18] = Human immunodeficiency virus 1, CCRF-CEM, HIV-1 (IIIB) in CEM, no addition, Table 3, read-out: EC50 as such
[19] = Human immunodeficiency virus 1, CCRF-CEM, HIV-1 (IIIB) in CEM, Ade 100 μM, read-out: EC50 upon addition of Ade (100 μM)
[20] = Human immunodeficiency virus 1, CCRF-CEM, HIV-1 (IIIB) in CEM, Ado 400 μM, read-out: EC50 upon addition of Ado (400 μM)
[21] = Human immunodeficiency virus 1, CCRF-CEM, HIV-1 (IIIB) in CEM, Guo 10 μM, read-out: EC50 upon addition of Guo (10 μM)
[22] = Human immunodeficiency virus 1, CCRF-CEM, HIV-1 (IIIB) in CEM, dCyd 1 mM, read-out: EC50 upon addition of dCyd (1 mM)
[23] = Human immunodeficiency virus 1, CCRF-CEM, HIV-1 (IIIB) in CEM, dThd 10 μM, read-out: EC50 upon addition of dThd (10 μM)
[24] = Human immunodeficiency virus 1, CCRF-CEM, HIV-1(IIIB)-induced cytopathicity in CEM cell cultures, Table 1, read-out: EC50 HIV-1 (CEM)
[25] = Human immunodeficiency virus 1, IIIB, CCRF-CEM, giant cell formation, mean ±SD of 2 to 4 experiments, Table 2, read-out: EC50 HIV-1 (IIIB) (CEM)

SMILES | EC50 MSV (C3H) [1] | -Fold Resistance HIV-1/L1S [2] | -Fold Resistance HIV-1/L6S [3] | -Fold Resistance HIV-1/L6S/PMEA [4] | CC50 C3H (minimal inhibitory concentration) [5] | Inhibition of [3H]dThd, [3H]Urd and [3H]leu incorporation into TCA-insoluble CEM cell material (macromolecular synthesis) [6] | EC50 as such [7, 12] | EC50 upon addition of Ade (100 μM) [7, 13] | EC50 upon addition of Ado (400 μM) [7, 14] | EC50 upon addition of Guo (10 μM) ([7]; HIV-1 (IIIB) in CEM, Guo 10 μM) | EC50 upon addition of dCyd (1 mM) ([7]; HIV-1 (IIIB) in CEM, dCyd 1 mM) | EC50 upon addition of dThd (10 μM) [7, 15] | EC50 HIV-1 (CEM) [7, 16] | EC50 HIV-1 (IIIB) (CEM) [7, 17] | EC50 HIV-1 (IIIB) (MT-4) [8] | EC50 HIV-1(IIIB) in PBL [9] | EC50 [1] | Activity against NNRTI-specific mutant virus strains, in words [10] | Compound concentration at which morphological toxicity was observed, C3H (value between parentheses) [5] | EC50 [7, 18] | further results
C[C@H](Cn1cnc2c(N)ncnc21)OCP(=O)(O)O [(R)-PMPA, (R)-9-[(2-phosphonomethoxy)-propyl]adenine, reference compound] | 1.4 ± 0.9 µg/mL (≈ 4.87 µM) | 2.3 fold | 11 fold | 54 fold | >200 µg/mL | not inhibitory | 0.57 ± 0.26 µg/mL (≈ 1.98 µM) | 1.6 ± 1.6 µg/mL | 0.46 ± 0.23 µg/mL | 0.43 ± 0.0 µg/mL | 0.53 ± 0.26 µg/mL | 0.43 ± 0.0 µg/mL | 0.36 µg/mL (≈ 1.25 µM) | 0.36 ± 0.24 µg/mL (≈ 1.25 µM) | 0.46 ± 0.006 µg/mL (≈ 1.6 µM) | 0.33 µg/mL (≈ 1.15 µM) | – | – | – | – | EC50 HIV-1 (IIIB) (PBL) ([9]; p24 antigen production, Table 2): 0.09 ± 0.03 µg/mL (≈ 0.313 µM)
Nc1cc(SCCOCP(=O)(O)O)nc(N)n1 [Compound 2, 2,4-diamino-6-{[2-(phosphonomethoxy)ethyl]-sulfanyl}pyrimidine] | – | 2.1 fold | 1.4 fold | 14 fold | – | Neither compounds 1 nor 2, nor compound 11 were inhibitory | – | – | – | – | – | – | – | – | – | – | 1.7 ± 0.9 µg/mL (≈ 6.07 µM) | retained full activity | 200 μg/ml | 1.9 ± 0.75 µg/mL (≈ 6.78 µM) | Minimal concentration causing visible cell morphology alteration ([11]; C3H/3T3 embryo fibroblast cells): > 40 µg/mL; EC50 [7, 19]: 3.3 ± 3.2 µg/mL (≈ 11.8 µM); EC50 [7, 20]: 4.4 ± 2.8 µg/mL (≈ 15.7 µM); EC50 [7, 21]: 1.9 ± 0.49 µg/mL (≈ 6.78 µM); EC50 [7, 22]: 2.1 ± 1.7 µg/mL (≈ 7.49 µM); EC50 [7, 23]: 1.4 ± 0.21 µg/mL (≈ 5 µM); EC50 [7, 24]: 5.5 µg/mL (≈ 19.6 µM); EC50 [7, 25]: 4.6 ± 3.1 µg/mL (≈ 16.4 µM); EC50 [8]: 2.5 ± 0.3 µg/mL (≈ 8.92 µM)
C[C@H](COc1cc(N)nc(N)n1)OCP(=O)(O)O [Compound 11, 2,4-diamino-6-(R)-[2-(phosphonomethoxy)propoxy]pyrimidine] | 0.05 ± 0.01 µg/mL (≈ 0.18 µM) | 1.9 fold | 3.5 fold | 30 fold | > 40 µg/mL | Neither compounds 1 nor 2, nor compound 11 were inhibitory | 1.2 ± 0.25 µg/mL (≈ 4.31 µM) | 0.35 ± 0.17 µg/mL | 1.5 ± 0.70 µg/mL | 0.77 ± 0.38 µg/mL | 1.1 ± 0.51 µg/mL | 0.83 ± 0.35 µg/mL | 1.8 µg/mL (≈ 6.47 µM) | 1.9 ± 0.5 µg/mL (≈ 6.83 µM) | 3.0 ± 0.4 µg/mL (≈ 10.8 µM) | 0.12 µg/mL (≈ 0.431 µM) | – | retained full activity | 200 μg/ml | – | Antiretroviral (anti-HIV-1) activity in CEM cell cultures, in words [7]: markedly more inhibitory
Nc1ncnc2c1ncn2CCOCP(=O)(O)O [PMEA, 9-[(2-phosphono-methoxy)ethyl]adenine, reference compound] | – | 2.0 fold | 2.7 fold | 7.3 fold | – | not inhibitory | – | – | – | – | – | – | – | – | – | – | 0.62 ± 0.27 µg/mL (≈ 2.27 µM) | – | 200 μg/ml | 0.94 ± 0.24 µg/mL (≈ 3.44 µM) | Minimal concentration causing visible cell morphology alteration [11]: > 40 µg/mL; EC50 [7, 19]: 1.9 ± 1.3 µg/mL (≈ 6.95 µM); EC50 [7, 20]: 1.6 ± 0.4 µg/mL (≈ 5.86 µM); EC50 [7, 21]: 1 ± 0.8 µg/mL (≈ 3.66 µM); EC50 [7, 22]: 2.1 ± 0.19 µg/mL (≈ 7.69 µM); EC50 [7, 23]: 1.4 ± 0.4 µg/mL (≈ 5.12 µM); EC50 [7, 24]: 0.96 µg/mL (≈ 3.51 µM); EC50 [7, 25]: 0.96 ± 0.24 µg/mL (≈ 3.51 µM); EC50 [8]: 1.3 ± 1.1 µg/mL (≈ 4.76 µM); EC50 ([9]; p24 antigen production, Table 2, read-out: EC50 HIV-1 (IIIB) (PBL)): 0.55 ± 0.41 µg/mL (≈ 2.01 µM); EC50 ([9]; read-out: EC50 HIV-1(IIIB) in PBL): 1.9 µg/mL (≈ 6.95 µM)
